Test results published in ChEMBL document CHEMBL4842331, “Targeted Discovery of the Polyene Macrolide Hexacosalactone A from Streptomyces by Reporter-Guided Selection of Fermentation Media” (J Nat Prod, 2021).
Converted amounts (≈) assume the structure as drawn. The source made the active and inactive calls. The rule behind the calls is not given here.

What was measured:
Proteus vulgaris = test: Antibacterial activity against Proteus vulgaris CPCC 160013 assessed as inhibition of bacterial growth by paper disk diffusion method; format: functional
Staphylococcus aureus = test: Antibacterial activity against Staphylococcus aureus ATCC 25923 assessed as inhibition of bacterial growth by paper disk diffusion method; format: functional
[1] = test system: Mycolicibacterium smegmatis; test: Antibacterial activity against Mycobacterium smegmatis mc2 155 assessed as inhibition of bacterial growth at 20 ug/disk by paper disk diffusion method; format: functional, organism-based; settings: dose 20.0 µg
Salmonella typhimurium = test: Antibacterial activity against Salmonella enterica serovar typhimurium UK-1X8956 assessed as inhibition of bacterial growth at 20 ug/disk by paper disk diffusion method; format: functional, organism-based; settings: Salmonella enterica subsp. enterica serovar Typhimurium, dose 20.0 µg
Escherichia coli = test: Antibacterial activity against Escherichia coli DH5alpha assessed as inhibition of bacterial growth at 20 ug/disk by paper disk diffusion method; format: functional, organism-based; settings: DH5[alpha], dose 20.0 µg
Pseudomonas aeruginosa = test: Antibacterial activity against Pseudomonas aeruginosa PAO1 assessed as inhibition of bacterial growth at 20 ug/disk by paper disk diffusion method; format: functional, organism-based; settings: dose 20.0 µg
MDA-MB-231 = test: Cytotoxicity against human MDA-MB-231 cells assessed as reduction in cell viability by MTT assay; format: functional, cell-based
NCI-H1299 = test: Cytotoxicity against human NCI-H1299 cells assessed as reduction in cell viability by MTT assay; format: functional, cell-based
K562 = test: Cytotoxicity against human K562 cells assessed as reduction in cell viability by MTT assay; format: functional, cell-based
Alternaria alternata = test: Antifungal activity against Alternaria alternata assessed as inhibition of fungal growth at 20 ug/disk by paper disk diffusion method; format: functional, organism-based; settings: dose 20.0 µg
Rhizoctonia solani = test: Antifungal activity against Rhizoctonia solani assessed as inhibition of fungal growth at 20 ug/disk by paper disk diffusion method; format: functional, organism-based; settings: dose 20.0 µg
Botryosphaeria dothidea = test: Antifungal activity against Botryosphaeria dothidea assessed as inhibition of fungal growth at 20 ug/disk by paper disk diffusion method; format: functional, organism-based; settings: dose 20.0 µg
Valsa ambiens = test: Antifungal activity against Valsa ambiens assessed as inhibition of fungal growth at 20 ug/disk by paper disk diffusion method; format: functional, organism-based; settings: Cytospora leucosperma; dose 20.0 µg
Phytophthora capsici = test: Antifungal activity against Phytophthora capsici assessed as inhibition of fungal growth at 20 ug/disk by paper disk diffusion method; format: functional, organism-based; settings: dose 20.0 µg

## CO[C@@H]1C[C@H](O)[C@@H](C)[C@H](O)[C@@H](C)C[C@@H](C)C(=O)C(C)[C@H](C(C)C)OC(=O)/C(C)=C/C=C/C(C)=C/C=C/C(C)=C\C[C@H](OC(=O)/C=C/C(=O)NC2=C(O)CCC2=O)[C@@H]1C (some centres undefined)
Proteus vulgaris
  MIC: 12.5 µg/mL (≈ 15.4 µM)
Staphylococcus aureus
  MIC: 12.5 µg/mL (≈ 15.4 µM)
[1]
  Activity: inactive
Salmonella typhimurium
  Activity: inactive
Escherichia coli
  Activity: inactive
Pseudomonas aeruginosa
  Activity: inactive
MDA-MB-231
  IC50: > 20 µM
NCI-H1299
  IC50: > 20 µM
K562
  IC50: > 20 µM
Alternaria alternata
  Activity: inactive
Rhizoctonia solani
  Activity: inactive
Botryosphaeria dothidea
  Activity: inactive
Valsa ambiens
  Activity: inactive
Phytophthora capsici
  Activity: inactive
